Like-named read-outs stand apart in the source and are kept apart here.
Target: T1, EcR-RXR (EcR-LgBiT / RXR-SmBiT) (Drosophila melanogaster, UniProt P34021)
T1 construct: full-length EcR with C-terminal LgBiT (pFC34K-EcR) and RXR with C-terminal SmBiT (pFC36K-RXR), expressed in HEK293T cells; heterodimer; probably human RXR-alpha
T1 sequence (P34021 1-878): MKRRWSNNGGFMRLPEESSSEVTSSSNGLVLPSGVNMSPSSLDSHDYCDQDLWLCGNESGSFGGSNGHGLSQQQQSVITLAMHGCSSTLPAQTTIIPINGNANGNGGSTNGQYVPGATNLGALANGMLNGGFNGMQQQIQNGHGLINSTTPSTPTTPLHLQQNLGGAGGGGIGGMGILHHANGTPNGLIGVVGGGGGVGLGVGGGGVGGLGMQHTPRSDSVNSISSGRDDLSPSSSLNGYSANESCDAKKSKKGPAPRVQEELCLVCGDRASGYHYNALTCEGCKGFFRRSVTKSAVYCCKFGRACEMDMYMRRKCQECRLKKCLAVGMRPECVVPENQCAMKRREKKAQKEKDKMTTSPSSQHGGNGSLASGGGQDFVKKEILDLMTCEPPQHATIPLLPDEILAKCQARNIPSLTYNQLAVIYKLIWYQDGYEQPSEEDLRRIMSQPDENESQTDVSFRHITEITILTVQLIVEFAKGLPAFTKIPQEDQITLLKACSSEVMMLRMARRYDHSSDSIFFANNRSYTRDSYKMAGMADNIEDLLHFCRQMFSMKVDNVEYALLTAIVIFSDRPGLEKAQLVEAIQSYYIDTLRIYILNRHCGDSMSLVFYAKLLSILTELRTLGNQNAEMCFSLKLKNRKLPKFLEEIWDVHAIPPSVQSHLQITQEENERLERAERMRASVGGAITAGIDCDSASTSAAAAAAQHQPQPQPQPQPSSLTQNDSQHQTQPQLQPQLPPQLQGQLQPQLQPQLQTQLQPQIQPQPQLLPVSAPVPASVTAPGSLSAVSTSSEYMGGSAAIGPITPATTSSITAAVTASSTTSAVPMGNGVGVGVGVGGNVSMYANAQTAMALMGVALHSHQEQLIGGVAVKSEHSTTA
T1 sequence (P19793 1-462 partner): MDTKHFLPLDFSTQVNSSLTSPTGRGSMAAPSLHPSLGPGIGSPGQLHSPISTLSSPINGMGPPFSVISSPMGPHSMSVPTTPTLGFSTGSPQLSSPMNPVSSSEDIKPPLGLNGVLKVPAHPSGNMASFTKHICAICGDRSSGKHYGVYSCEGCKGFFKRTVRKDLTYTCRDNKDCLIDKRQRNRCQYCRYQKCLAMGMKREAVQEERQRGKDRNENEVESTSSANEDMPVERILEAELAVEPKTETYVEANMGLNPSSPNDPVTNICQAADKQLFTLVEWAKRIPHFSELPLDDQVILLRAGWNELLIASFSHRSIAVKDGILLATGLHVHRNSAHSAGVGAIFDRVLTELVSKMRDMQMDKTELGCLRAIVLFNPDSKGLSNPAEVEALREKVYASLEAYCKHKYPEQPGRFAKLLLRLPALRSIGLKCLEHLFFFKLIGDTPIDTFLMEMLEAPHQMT
Test: NanoBiT split-luciferase assay of ligand-induced EcR-RXR heterodimerization in live HEK293T cells
Type: cell-based

| Compound | EC50 (read-out: EC50) [µM] | EC50 [µM] |
| --- | --- | --- |
| CC(C)(O)CC[C@@H](O)[C@](C)(O)[C@H]1CC[C@@]2(O)C3=CC(=O)[C@@H]4C[C@@H](O)[C@@H](O)C[C@]4(C)[C@H]3CC[C@]12C [20E, 20-hydroxyecdysone] | 2.2 | – |
| Cc1cc(C)cc(C(=O)N(NC(=O)c2ccc3c(c2C)CCCO3)C(C)(C)C)c1 [CF, chromafenozide] | – | 4.76 |
